Our source for the IC50 values is patent publication US20090312288A1 (TAKEDA PHARMACEUTICAL COMPANY LIMITED, priority 2008, published 2009).

pIC50: −log10 of the molar value. A value given as a limit tells only on which side of the number the result lay.

Sequence of Aurora B/INCENP (Q96GD4 whole entry): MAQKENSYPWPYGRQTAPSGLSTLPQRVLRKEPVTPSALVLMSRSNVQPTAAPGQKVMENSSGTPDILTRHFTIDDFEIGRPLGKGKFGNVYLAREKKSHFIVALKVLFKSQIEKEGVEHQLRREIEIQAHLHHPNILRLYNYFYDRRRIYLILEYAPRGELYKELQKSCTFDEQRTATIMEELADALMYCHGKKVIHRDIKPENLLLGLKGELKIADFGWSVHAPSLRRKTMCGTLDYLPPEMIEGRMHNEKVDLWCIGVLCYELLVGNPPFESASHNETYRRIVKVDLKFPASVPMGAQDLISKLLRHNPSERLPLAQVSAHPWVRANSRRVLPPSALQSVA
Sequence of Aurora B/INCENP (Q9NQS7 whole entry partner): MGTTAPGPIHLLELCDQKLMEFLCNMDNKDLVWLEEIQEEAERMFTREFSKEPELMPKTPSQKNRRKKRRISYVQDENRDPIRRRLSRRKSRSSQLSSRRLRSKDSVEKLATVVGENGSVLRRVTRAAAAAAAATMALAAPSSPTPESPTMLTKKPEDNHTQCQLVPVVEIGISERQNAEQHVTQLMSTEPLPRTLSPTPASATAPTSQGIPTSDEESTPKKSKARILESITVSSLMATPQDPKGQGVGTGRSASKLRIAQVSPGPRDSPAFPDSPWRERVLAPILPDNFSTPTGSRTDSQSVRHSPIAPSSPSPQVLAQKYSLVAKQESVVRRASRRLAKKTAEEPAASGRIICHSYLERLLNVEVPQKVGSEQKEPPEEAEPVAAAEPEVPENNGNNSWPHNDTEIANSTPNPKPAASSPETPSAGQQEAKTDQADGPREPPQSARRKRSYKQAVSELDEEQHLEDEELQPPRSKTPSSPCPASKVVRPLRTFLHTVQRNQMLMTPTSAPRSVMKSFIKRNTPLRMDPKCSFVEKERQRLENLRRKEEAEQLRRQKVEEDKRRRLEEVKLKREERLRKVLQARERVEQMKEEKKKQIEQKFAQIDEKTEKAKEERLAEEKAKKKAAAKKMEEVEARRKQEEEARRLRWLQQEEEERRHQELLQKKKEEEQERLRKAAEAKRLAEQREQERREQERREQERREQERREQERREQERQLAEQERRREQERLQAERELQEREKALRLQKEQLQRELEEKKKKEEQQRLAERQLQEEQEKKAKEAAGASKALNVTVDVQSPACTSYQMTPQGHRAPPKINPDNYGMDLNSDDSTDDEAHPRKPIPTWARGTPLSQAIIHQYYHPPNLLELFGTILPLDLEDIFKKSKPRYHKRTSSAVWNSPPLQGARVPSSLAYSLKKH

The assay addresses Aurora B/INCENP (Homo sapiens, UniProt Q96GD4). Nature of the assay: Determination of inhibition of AIK: Aurora B/INCENP direct fluorescence polarization (IMAP) assay. The assay is classed as biochemical. Conditions: 10 uM ATP, 0.8 nM Aurora B/INCENP; values given as bins; read-out: IC50 of Exemplified Compounds Against AIK B.
For orientation: pIC50 means −log10 of the IC50, conventionally taken in molar units. For the molecule `CCS(=O)(=O)c1cccc(-c2ccc(OCCCn3ccnc3)c3[nH]c4ncc(Cl)cc4c23)c1` [Compound 301, 8-(3-(1H-imidazol-1-yl)propoxy)-3-chloro-5-(3-(ethylsulfonyl)phenyl)-9H-pyrido[2,3-b]indole], the negative logarithm of the IC50 (pIC50) is over 8.40.
Regarding `CCS(=O)(=O)c1cccc(-c2ccc(OCCCN(C)CCO)c3[nH]c4ncc(C)cc4c23)c1` [Compound 305, 2-((3-(5-(3-(ethylsulfonyl)phenyl)-3-methyl-9H-pyrido[2,3-b]indol-8-yloxy)propyl)(methyl)amino)ethanol], the pIC50 is over 8.40.
Turning to `CCS(=O)(=O)c1cccc(-c2ccc(OCCCN(C)CCOP(=O)(O)O)c3[nH]c4ncc(C)cc4c23)c1` [Compound 308, 2-((3-(5-(3-(ethylsulfonyl)phenyl)-3-methyl-9H-pyrido[2,3-b]indol-8-yloxy)propyl)(methyl)amino)ethyl dihydrogen phosphate], the pIC50 is over 8.40.
With `Cc1cnc2[nH]c3c(OC[C@@H](O)CN(C)C)ccc(-c4cccc(S(=O)(=O)C5CC5)c4)c3c2c1` [Compound 313, (S)-1-(5-(3-(cyclopropylsulfonyl)phenyl)-3-methyl-9H-pyrido[2,3-b]indol-8-yloxy)-3-(dimethylamino)propan-2-ol] the figure was over 8.40; with `Cc1cnc2[nH]c3c(OC[C@H](CN(C)C)OP(=O)(O)O)ccc(-c4cccc(S(=O)(=O)C5CC5)c4)c3c2c1` [Compound 314, (S)-1-(5-(3-(cyclopropylsulfonyl)phenyl)-3-methyl-9H-pyrido[2,3-b]indol-8-yloxy)-3-(dimethylamino)propan-2-yl dihydrogen phosphate], 8.26 to 8.40; with `Cc1cnc2[nH]c3c(OC[C@@H](CN(C)C)OP(=O)(O)O)ccc(-c4cccc(S(=O)(=O)C5CC5)c4)c3c2c1` [Compound 315, (R)-1-(5-(3-(cyclopropylsulfonyl)phenyl)-3-methyl-9H-pyrido[2,3-b]indol-8-yloxy)-3-(dimethylamino)propan-2-yl dihydrogen phosphate], over 8.40.
For `Cc1cc(Nc2ccc(OCC3CCN(C)CC3)c3[nH]c4ncc(Cl)cc4c23)ccc1N1CCN(C)CC1` [Compound 316, 3-chloro-N-(3-methyl-4-(4-methylpiperazin-1-yl)phenyl)-8-((1-methylpiperidin-4-yl)methoxy)-9H-pyrido[2,3-b]indol-5-amine], the pIC50 is under 7.89.
Turning to `CCN(CCO)CCOc1ccc(-c2cccc(S(=O)(=O)C3CC3)c2)c2c1[nH]c1ncc(C)cc12` [Compound 318, 2-((2-(5-(3-(cyclopropylsulfonyl)phenyl)-3-methyl-9H-pyrido[2,3-b]indol-8-yloxy)ethyl)(ethyl)amino)ethanol], the pIC50 was 7.89 to 8.07.
With `CN(CCO)CCOc1ccc(-c2cccc(S(=O)(=O)C3CC3)c2)c2c1[nH]c1ncc(Cl)cc12` [Compound 319, 2-((2-(3-chloro-5-(3-(cyclopropylsulfonyl)phenyl)-9H-pyrido[2,3-b]indol-8-yloxy)ethyl)(methyl)amino)ethanol] the figure was over 8.40.
On to `Cc1cnc2[nH]c3c(OCCN4CCC(O)CC4)ccc(-c4cccc(S(=O)(=O)C5CC5)c4)c3c2c1` [Compound 322, 1-(2-(5-(3-(cyclopropylsulfonyl)phenyl)-3-methyl-9H-pyrido[2,3-b]indol-8-yloxy)ethyl)piperidin-4-ol], for which the pIC50 was over 8.40.
Take `CCN(CCO)CCOc1ccc(-c2cccc(S(=O)(=O)C3CC3)c2)c2c1[nH]c1ncc(Cl)cc12` [Compound 323, 2-((2-(3-chloro-5-(3-(cyclopropylsulfonyl)phenyl)-9H-pyrido[2,3-b]indol-8-yloxy)ethyl)(ethyl)amino)ethanol]: the pIC50 was 8.07 to 8.25.
As for `O=S(=O)(c1cccc(-c2ccc(OCCN3CCC(O)CC3)c3[nH]c4ncc(Cl)cc4c23)c1)C1CC1` [Compound 325, 1-(2-(3-chloro-5-(3-(cyclopropylsulfonyl)phenyl)-9H-pyrido[2,3-b]indol-8-yloxy)ethyl)piperidin-4-ol], the pIC50 was over 8.40.
Then `CCS(=O)(=O)c1cccc(-c2ccc(OCCN3CCC(O)CC3)c3[nH]c4ncc(Cl)cc4c23)c1` [Compound 327, 1-(2-(3-chloro-5-(3-(ethylsulfonyl)phenyl)-9H-pyrido[2,3-b]indol-8-yloxy)ethyl)piperidin-4-ol], with 7.89 to 8.07; and `CCS(=O)(=O)c1cccc(-c2ccc(OCCn3ccnc3)c3[nH]c4ncc(C)cc4c23)c1` [Compound 333, 8-(2-(1H-imidazol-1-yl)ethoxy)-5-(3-(ethylsulfonyl)phenyl)-3-methyl-9H-pyrido[2,3-b]indole], with under 7.89.
`Cc1cnc2[nH]c3c(OCCCN(CCO)CC(F)(F)F)ccc(-c4cccc(S(=O)(=O)C5CC5)c4)c3c2c1` [Compound 339, 2-((3-(5-(3-(cyclopropylsulfonyl)phenyl)-3-methyl-9H-pyrido[2,3-b]indol-8-yloxy)propyl)(2,2,2-trifluoroethyl)amino)ethanol]: the pIC50 was under 7.89.
In the case of `CCS(=O)(=O)c1cccc(-c2ccc(OCCCN(CCO)CC(F)(F)F)c3[nH]c4ncc(C)cc4c23)c1` [Compound 340, 2-((3-(5-(3-(ethylsulfonyl)phenyl)-3-methyl-9H-pyrido[2,3-b]indol-8-yloxy)propyl)(2,2,2-trifluoroethyl)amino)ethanol], the pIC50 was under 7.89.
Regarding `Cc1cnc2[nH]c3c(OCCCN(CCO)CC(F)F)ccc(-c4cccc(S(=O)(=O)C5CC5)c4)c3c2c1` [Compound 341, 2-((3-(5-(3-(cyclopropylsulfonyl)phenyl)-3-methyl-9H-pyrido[2,3-b]indol-8-yloxy)propyl)(2,2-difluoroethyl)amino)ethanol], the negative-log IC50 (pIC50) is under 7.89.
For the molecule `CCS(=O)(=O)c1cccc(-c2ccc(OCCCN(CCOP(=O)(O)O)CC(F)(F)F)c3[nH]c4ncc(C)cc4c23)c1` [Compound 343, 2-((3-(5-(3-(ethylsulfonyl)phenyl)-3-methyl-9H-pyrido[2,3-b]indol-8-yloxy)propyl)(2,2,2-trifluoroethyl)amino)ethyl dihydrogen phosphate], the pIC50 is over 8.40.
With `Cc1cnc2[nH]c3c(OCC4CCN(CCO)CC4)ccc(-c4cccc(S(=O)(=O)C5CC5)c4)c3c2c1` [Compound 345, 2-(4-((5-(3-(cyclopropylsulfonyl)phenyl)-3-methyl-9H-pyrido[2,3-b]indol-8-yloxy)methyl)piperidin-1-yl)ethanol], the negative-log IC50 (pIC50) was over 8.40.
As to `Cc1cnc2[nH]c3c(OCC4CCN(CCOP(=O)(O)O)CC4)ccc(-c4cccc(S(=O)(=O)C5CC5)c4)c3c2c1` [Compound 346, 2-(4-((5-(3-(cyclopropylsulfonyl)phenyl)-3-methyl-9H-pyrido[2,3-b]indol-8-yloxy)methyl)piperidin-1-yl)ethyl dihydrogen phosphate], the pIC50 was over 8.40.
With `Cc1cnc2[nH]c3c(OCCCN4CCC(COP(=O)(O)O)CC4)ccc(-c4cccc(S(=O)(=O)C5CC5)c4)c3c2c1` [Compound 347, (1-(3-(5-(3-(cyclopropylsulfonyl)phenyl)-3-methyl-9H-pyrido[2,3-b]indol-8-yloxy)propyl)piperidin-4-yl)methyl dihydrogen phosphate], the negative logarithm of the IC50 (pIC50) was over 8.40.
Then `CCS(=O)(=O)c1cccc(-c2ccc(OCCCOP(=O)(O)O)c3[nH]c4ncc(C)cc4c23)c1` [Compound 350, 3-(5-(3-(ethylsulfonyl)phenyl)-3-methyl-9H-pyrido[2,3-b]indol-8-yloxy)propyl dihydrogen phosphate], with over 8.40.
